Measurements from article PMC3749120, “RasGRPs Are Targets of the Anti-Cancer Agent Ingenol-3-Angelate” (PLoS ONE, 2013).

Key:
RasGRP3 [1] = biological target: T1, RasGRP3 (Homo sapiens, UniProt Q8IV61); experiment: competition radioligand binding with [3H]phorbol […],13-dibutyrate, […]°C
T1 construct: full-length
T1 sequence (Q8IV61 1-690): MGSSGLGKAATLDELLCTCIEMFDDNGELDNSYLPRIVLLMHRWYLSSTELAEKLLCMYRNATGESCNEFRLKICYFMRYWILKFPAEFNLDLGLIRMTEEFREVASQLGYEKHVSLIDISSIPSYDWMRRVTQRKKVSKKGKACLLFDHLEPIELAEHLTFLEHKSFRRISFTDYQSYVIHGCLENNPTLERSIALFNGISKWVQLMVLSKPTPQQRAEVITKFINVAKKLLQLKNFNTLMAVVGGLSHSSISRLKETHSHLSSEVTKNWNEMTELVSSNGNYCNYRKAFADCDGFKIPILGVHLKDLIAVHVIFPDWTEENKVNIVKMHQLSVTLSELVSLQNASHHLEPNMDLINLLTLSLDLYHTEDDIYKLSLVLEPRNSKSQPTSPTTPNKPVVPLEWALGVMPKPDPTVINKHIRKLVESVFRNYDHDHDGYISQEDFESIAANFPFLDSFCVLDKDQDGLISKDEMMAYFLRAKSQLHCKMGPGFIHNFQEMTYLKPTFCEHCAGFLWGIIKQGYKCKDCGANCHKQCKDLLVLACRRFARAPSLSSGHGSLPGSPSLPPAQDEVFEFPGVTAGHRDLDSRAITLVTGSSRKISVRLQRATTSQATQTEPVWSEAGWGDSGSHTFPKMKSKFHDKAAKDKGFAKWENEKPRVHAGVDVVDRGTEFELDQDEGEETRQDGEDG

RasGRP3 [2] = biological target: T1, RasGRP3; experiment: [3H]PDBu radioligand binding

SMILES	Kd (RasGRP3 [1]) [nM]	Kd (RasGRP3 [2]) [nM]
C/C=C(/C)C(=O)O[C@H]1C(C)=C[C@]23C(=O)[C@@H](C=C(CO)[C@@H](O)[C@]12O)[C@H]1[C@@H](C[C@H]3C)C1(C)C [I3A, Ingenol-3-angelate]	0.045 ± 0.005	
CCCC(=O)O[C@@H]1[C@@H](C)[C@@]2(O)[C@@H](C=C(CO)C[C@]3(O)C(=O)C(C)=C[C@@H]23)[C@@H]2C(C)(C)[C@]12OC(=O)CCC [PDBu, phorbol 12,13-dibutyrate]		0.42 ± 0.03
